Source: article PMC11507441, “Oilseed Cakes: A Promising Source of Antioxidant, and Anti-Inflammatory Agents—Insights from Lactuca sativa” (International Journal of Molecular Sciences, 2024)

Tests used:
[1] = system: GPx; test: GPx activity in rat paw tissue homogenate (carrageenan model); assay type: in vivo; settings: for GPx (U/gm Tissue): paw tissue 5 h after carrageenan
Description: (§1) The levels of inflammatory mediators (IL-1β, TNF-α, and PGE2) in rat paw tissue homogenate were measured using the following Kits: Rat TNF-α (Tumor Necrosis Factor Alpha) ELISA Kit from Elabscience® Company, Houston, TX, USA, Interleukin 1 Beta (IL-1b) Organism Species: Rattus norvegicus (Rat) from Cloud Clone Crop Company and Rat PGE2 (Prostaglandin E2) ELISA Kit from Fine test® company Hubei, China. In addition, oxidative stress parameters in rat paw tissue homogenate were measured using superoxide dismutase, glutathione peroxidase, and catalase Kits from the Biodiagnostic company, Birmingham, UK.
(§2) Rats were slaughtered, and their paw tissues were gathered and weighed five hours after the carrageenan was administered. The tissues underwent processing after being fixed in 10% formalin. Rat paw tissue was homogenized, and its oxidative stress indices (SOD, CAT, and GPx) as well as the levels of inflammatory mediators (IL-1β, TNF-α, and PGE2) were measured.

[2] = system: CAT; test: CAT activity in rat paw tissue homogenate (carrageenan model); assay type: in vivo; settings: for CAT (U/gm Tissue): paw tissue 5 h after carrageenan
Description: as §1, §2

[3] = system: P. aeruginosa; test: Antimicrobial screening, zone of inhibition; assay type: cell-based; settings: Table 1
Description: The procedure was performed according to Stylianakis et al.. A comparison of the extract’s zone of inhibition to that of a reference antibiotic’s activity index was determined using the following equation:Activity index = (the inhibition zone of extract/the inhibition zone of the standard) × 100

[4] = system: dermal inflammation; test: Histopathological assessment of paw skin tissue (carrageenan model); assay type: in vivo, rat; settings: 5 h after carrageenan
Text: Five hours following the carrageenan injection, tissue specimen samples from the paw skin tissue of every group under study were removed for histological examination. Prior to being submerged in paraffin blocks, they were fixed in a 10% formalin solution and stained with hematoxylin-eosin. Using a microtome, paraffin sections with a thickness of 5 µm were cut, and hematoxylin and eosin were frequently applied to the sections. Microscopically, these tissue slices were inspected. Consequently, the sections were examined under a light microscope; on the other hand, photos taken with a digital camera (Canon Power-shot D10) recorded the progression of paw oedema.

[5] = system: SOD; test: SOD activity in rat paw tissue homogenate (carrageenan model); assay type: in vivo; settings: for SOD (U/gm Tissue): paw tissue 5 h after carrageenan
Description: as §1, §2

[6] = system: carrageenan-induced paw oedema; test: Carrageenan-induced paw oedema; assay type: in vivo; settings: rat
Description: Adult albino rats 180-220 g of both sexes used in the investigation were acquired from the Mansoura University Faculty of Pharmacy's Animal House. Standard laboratory diet and water were provided, and they were housed in cages maintained at a constant temperature of 22 ± 2 °C. The Animal Care and Use Committee (MU-ACUC) of Mansoura University, Egypt, has approved all procedures involving animals with code number: […] Throughout the experiment, medications and extracts were given orally in doses of 1 mL/100 g of the rat's body weight after being solubilized in carboxymethyl cellulose (CMC) in order to create a suspension formula. In this test, rats were divided into six groups, with each group containing 5 animals. Group-1: […] Group-2: Positive control (carrageenan-induced oedema, Sigma (St. Louis, MO, USA)) without any treatment. […] Group-4: […] extract of Lactuca sativa was administered at a 2 g/kg dose. Group-5: Compound (1) is administered at a dose of 20 mg/kg. Group-6: Compound (1) at a dose of 40 mg/kg. Group-7: Combination of standard and compound (1) at doses of (10 + 20) mg/kg, respectively. […] Using a digital vernier calliper, the swelling of the paw that had been injected with carrageenan was measured prior to injection as well as 1, 2, 3, 4, and 5 h following the treatment's induction. The percentage inhibition of oedema in the test animals treated with the extract compared to the carrageenan control group was used to calculate the anti-inflammatory activity. The formula […] was used to calculate the percentage inhibition of inflammation, where “dt” represents the difference in paw volume in the drug-treated group and “dc” represents the difference in paw volume relative to the control group. Moreover, “I” represents the suppression of inflammation.

[7] = system: IL-6 production in TNF-a-stimulated MG-63 cells; settings: cited from earlier work
[8] = system: TNF-α; test: TNF-α in rat paw tissue homogenate (carrageenan model); assay type: in vivo; settings: doses of 20 and 40 mg/kg; compared to the vehicle control group
Description: as §1, §2

[9] = system: S. aureus; test: Antimicrobial screening, zone of inhibition; assay type: cell-based; settings: Table 1
Description: The procedure was performed according to […] et al.. A comparison of the extract's zone of inhibition to that of a reference antibiotic's activity index was determined using the following equation:Activity index = (the inhibition zone of extract/the inhibition zone of the standard) × 100

[10] = system: IL-1β; test: IL-1β in rat paw tissue homogenate (carrageenan model); assay type: in vivo; settings: doses of 20 and 40 mg/kg; compared to the vehicle control group
Description: as §1, §2

[11] = system: SARS-CoV-2 main protease Mpro or 3CLpro; settings: cited from earlier work
[12] = 40 mg/kg, compared to the control group
[13] = 1 mg/mL, relative to ciprofloxacin

Structure (SMILES): NC(CO)C(O)c1ccc2c(c1)OCO2 (stereo not drawn) [Compound 1, 1,3-propanediol-2-amino-1-(3′,4′-methylenedioxyphenyl)]
- GPx activity restored [1, 12]: 73.17%
- GPx (U/gm Tissue) ([1]; 20 mg/kg): 77.65 ± 3.18 U/gm Tissue
- GPx (U/gm Tissue) ([1]; 40 mg/kg): 86.75 ± 6.01 U/gm Tissue
- CAT activity restored [2, 12]: 72.08%
- CAT (U/gm Tissue) ([2]; 20 mg/kg): 1.50 ± 0.19 U/gm Tissue
- CAT (U/gm Tissue) ([2]; 40 mg/kg): 2.04 ± 0.26 U/gm Tissue
- zone of inhibition at 1000 µg/mL ([3]; Pseudomonas aeruginosa, isolated compounds 1 mg/mL, read-out: P. aeruginosa Diameter of Inhibition Zone (mm)): 3.8 ± 0.2 mm
- P. aeruginosa %Activity Index [3, 13]: 16.5%
- Histopathology of paw skin (H&E) ([4]; Group 6, 40 mg/kg): substantial reduction in dermal inflammation
- Histopathology of paw skin (H&E) ([4]; oral 20 mg/kg): moderate decrease in both inflammation and leukocyte infiltration
- SOD activity restored [5, 12]: 71.43%
- SOD (U/gm Tissue) ([5]; 20 mg/kg): 118.35 ± 1.06 U/gm Tissue
- SOD (U/gm Tissue) ([5]; 40 mg/kg): 135.05 ± 11.67 U/gm Tissue
- % Inhibition (%I) of paw oedema ([6]; 1 h, dose 20 mg/kg oral): 10.25%
- Increase in Paw Oedema ([6]; 1 h, dose 20 mg/kg oral): 1.05 ± 0.20 mL
- % Inhibition (%I) of paw oedema ([6]; 1 h, dose 40 mg/kg oral): 16.32%
- Increase in Paw Oedema ([6]; 1 h, dose 40 mg/kg oral): 0.77 ± 0.28 mL
- % Inhibition (%I) of paw oedema ([6]; 2 h, dose 20 mg/kg oral): 23.51%
- Increase in Paw Oedema ([6]; 2 h, dose 20 mg/kg oral): 1.81 ± 0.44 mL
- % Inhibition (%I) of paw oedema ([6]; 2 h, dose 40 mg/kg oral): 27.07%
- Increase in Paw Oedema ([6]; 2 h, dose 40 mg/kg oral): 1.59 ± 0.22 mL
- % Inhibition (%I) of paw oedema ([6]; 3 h, dose 20 mg/kg oral): 23.77%
- Increase in Paw Oedema ([6]; 3 h, dose 20 mg/kg oral): 2.26 ± 0.28 mL
- % Inhibition (%I) of paw oedema ([6]; 3 h, dose 40 mg/kg oral): 26.1%
- Increase in Paw Oedema ([6]; 3 h, dose 40 mg/kg oral): 2.11 ± 0.29 mL
- % Inhibition (%I) of paw oedema ([6]; 4 h, dose 20 mg/kg oral): 45.36%
- Increase in Paw Oedema ([6]; 4 h, dose 20 mg/kg oral): 2.18 ± 0.74 mL
- % Inhibition (%I) of paw oedema ([6]; 4 h, dose 40 mg/kg oral): 55.39%
- Increase in Paw Oedema ([6]; 4 h, dose 40 mg/kg oral): 1.78 ± 0.45 mL
- % Inhibition (%I) of paw oedema ([6]; 5 h, dose 20 mg/kg oral): 57.63%
- Increase in Paw Oedema ([6]; 5 h, dose 20 mg/kg oral): 1.75 ± 0.46 mL
- % Inhibition (%I) of paw oedema ([6]; 5 h, dose 40 mg/kg oral): 63.92%
- Increase in Paw Oedema ([6]; 5 h, dose 40 mg/kg oral): 1.49 ± 0.49 mL
- inhibition of IL-6 production [7]: strong inhibitory
- TNF-α level in paw tissue [8]: significant reduction
- zone of inhibition at 1000 µg/mL ([9]; Staphylococcus aureus, isolated compounds 1 mg/mL, read-out: S. aureus Diameter of Inhibition Zone (mm)): 6.9 ± 0.1 mm
- S. aureus %Activity Index [9, 13]: 28.9%
- IL-1β level in paw tissue [10]: significant reduction
- inhibitory activity against SARS-CoV-2 main protease [11]: moderate inhibitory activities
